Counter-ions that a name gives are not always drawn. Like-named read-outs stand apart in the source and are kept apart here.
Assays:
human TRPM8 [1] = target: T1, human TRPM8 (Homo sapiens, UniProt Q7Z2W7); assay: In vitro human TRPM8 fluorescence calcium flux assay (recombinant CHO cells, Fluo4-AM, FDSS6000); format: cell-based; conditions: recombinant CHO cells expressing human TRPM8; menthol-related EC50, normalized to 100 μM menthol
T1 construct: expressed in transfected cells; host or cells: CHO (p658 mammalian expression vector)
Summary of the method: (§1)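 CHO cells stably expressing pig or human TRPM8, loaded with 2 μM Fluo4-AM in HBSS/20 mM HEPES/0.1% BSA/2.5 mM probenecid for 1 h at RT. Intracellular calcium read kinetically for 3 min after compound addition. EC50 from sixteen-point curves, normalized to 100 μM menthol maximal response.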

pig TRPM8 [2] = target: T2, pig TRPM8 (Sus scrofa, UniProt F1SM15); assay: In vitro pig TRPM8 fluorescence calcium flux assay (recombinant CHO cells, Fluo4-AM, FDSS6000); format: cell-based; conditions: recombinant CHO cells expressing pig TRPM8; menthol-related EC50, normalized to 100 μM menthol
T2 construct: expressed in transfected cells; host or cells: CHO (pcDNA5/FRT/TO vector; hygromycin B and blasticidin selection)
Summary of the method: as §1

human TRPM8 [3] = target: T1, human TRPM8; assay: In vitro human TRPM8 automated patch-clamp assay (SyncroPatch 384PE, CHO cells); format: cell-based; conditions: CHO cells expressing human TRPM8, 28° C.
Summary of the method: (§2)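 Whole-cell automated patch clamp on engineered CHO lines at 28 °C, held at −60 mV, with −80 to +80 mV ramps every 5 s; one compound concentration per well. Peak current minus pre-addition baseline was normalised to no-compound control and Emax, and EC50 was fitted; 200 μM menthol wells served as control.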

pig TRPM8 [4] = target: T2, pig TRPM8; assay: In vitro pig TRPM8 automated patch-clamp assay (SyncroPatch 384PE, CHO cells); format: cell-based; conditions: CHO cells expressing pig TRPM8, 28° C.
Summary of the method: as §2

[5] = system: Male castrated German Landrace pigs; assay: In vivo assay: enhancement of swallowing in anesthetized pigs (manometry with pressure probe in the mouth); conditions: Sus scrofa, anesthetized pig, dose per pig 10 mg, injected in 1 ml vehicle into the oral cavity
Experimental: For testing the efficacy of TRPM8 agonists for enhancing swallowing, experiment using the pig model can be conducted according to assay described below. The efficacy can be compared to a vehicle control.
Male castrated German Landrace pigs (weight range of 20 to 35 kg) were used. Anesthesia was induced by injecting 20 ml of a urethane solution (20 g/100 mL dissolved in saline) into an ear vein corresponding to a dose of around […]. Anesthesia was maintained by continuous infusion of 15-20 mL per hour of the urethane solution, which was infused into an epigastric vein, and additionally by infusion of Zoletil and Rompun (500 mg Zoletil is disssovled in 10 ml of Rompun 2%, then diluted 1:10 with saline and 3-5 mL per hour of this diluted solution. Bupivacain 0.5% JENAPHARM@ was injected for additional infiltration anesthesia. Anesthesia was monitored via pulsoximetry (ear) and regular reflex testing for pain. Body temperature was monitored and maintained by an infrared lamp.
Preparation of pigs: Swallowing responses were assessed by manometry with a pressure probe placed into the mouth of the pig. The pressure probe consisted of a plastic tube (diameter 3.3 mm) to which a small balloon was attached. The tube was advanced about 12-14 cm into the mouth related to the snout. The balloon was then inflated with air to yield a pressure of 20-30mbar (vehicle). Ideally a swallowing response with 1 ml of fluid raised this pressure by 20-50mbar which was then referred to as the swallowing pressure (the increment of this pre-set pressure in the inflated balloon after swallowing) to be further enhanced by an effective test drug.
The free end of the tube was connected to a differential pressure transducer MPX Type 399/2 (Hugo Sachs Elektronik-Harvard Apparatus) and a Hugo Sachs Plugsys-amplifier system. The biological signals were recorded by a Hugo Sachs Plugsys-amplifier system and continuously stored on a computer hard disk by an on line data acquisition and analysis system (Hem 4.2 Notocord Systems, Croissy-sur-Seine, France).
A second tube referred to as injection tube was placed dorsally to the manometer tube to enable the administration of the vehicle that induced the baseline swallowing activity, or of this same vehicle containing the test compound.
Induction and assessment of swallowing activity: 0.5h after anesthesia induction 1 ml of a fluid or the vehicle for the test drug was injected into the injection tube placed into the oral cavity. The number of swallows was counted and the highest-pressure increment was registered. Challenges with vehicle were repeated at intervals of 30 min until two consecutive vehicle challenges show an about equal swallowing response. The next challenge was the vehicle loaded with the test drug (otherwise same procedure). The efficacy of a compound to enhance swallowing as shown in Table 7 was expressed as the % increase in pressure and frequency of swallowing after administration of the compound compared to the pressure and frequency recorded for its vehicle administered just before.

[6] = frequency of swallowing compared with vehicle administered just before, read-out: % increase frequence vs vehicle
[7] = swallowing pressure compared with vehicle administered just before, read-out: % increase pressure vs vehicle

T1 sequence (Q7Z2W7 whole entry): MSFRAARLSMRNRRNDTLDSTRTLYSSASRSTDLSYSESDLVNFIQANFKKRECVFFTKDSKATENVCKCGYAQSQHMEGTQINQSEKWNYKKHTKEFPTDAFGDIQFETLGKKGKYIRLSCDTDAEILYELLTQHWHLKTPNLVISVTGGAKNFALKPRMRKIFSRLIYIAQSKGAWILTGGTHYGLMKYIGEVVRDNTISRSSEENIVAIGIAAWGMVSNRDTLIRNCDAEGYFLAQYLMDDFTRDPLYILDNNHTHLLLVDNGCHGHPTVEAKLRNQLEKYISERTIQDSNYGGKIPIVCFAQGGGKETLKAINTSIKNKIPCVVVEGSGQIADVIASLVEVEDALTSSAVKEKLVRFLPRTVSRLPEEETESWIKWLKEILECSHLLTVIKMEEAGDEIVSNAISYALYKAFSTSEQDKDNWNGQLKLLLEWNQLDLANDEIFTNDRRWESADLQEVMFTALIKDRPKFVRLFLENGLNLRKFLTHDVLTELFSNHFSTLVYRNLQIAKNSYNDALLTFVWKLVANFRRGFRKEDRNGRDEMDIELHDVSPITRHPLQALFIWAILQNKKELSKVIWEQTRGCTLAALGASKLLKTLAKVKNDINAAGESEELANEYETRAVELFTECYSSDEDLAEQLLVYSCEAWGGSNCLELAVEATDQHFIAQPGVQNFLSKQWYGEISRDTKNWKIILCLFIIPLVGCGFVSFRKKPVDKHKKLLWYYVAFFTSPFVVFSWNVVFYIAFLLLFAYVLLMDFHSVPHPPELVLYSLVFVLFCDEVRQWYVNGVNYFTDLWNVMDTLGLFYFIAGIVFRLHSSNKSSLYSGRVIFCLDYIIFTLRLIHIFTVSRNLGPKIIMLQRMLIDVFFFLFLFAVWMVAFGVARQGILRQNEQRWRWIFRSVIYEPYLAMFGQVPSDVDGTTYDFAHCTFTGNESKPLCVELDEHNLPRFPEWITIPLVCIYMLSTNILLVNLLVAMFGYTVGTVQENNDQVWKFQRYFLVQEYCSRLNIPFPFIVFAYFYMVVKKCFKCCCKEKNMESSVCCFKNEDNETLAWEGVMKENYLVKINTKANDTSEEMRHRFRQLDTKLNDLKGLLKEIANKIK
T2 sequence (F1SM15 1-1104): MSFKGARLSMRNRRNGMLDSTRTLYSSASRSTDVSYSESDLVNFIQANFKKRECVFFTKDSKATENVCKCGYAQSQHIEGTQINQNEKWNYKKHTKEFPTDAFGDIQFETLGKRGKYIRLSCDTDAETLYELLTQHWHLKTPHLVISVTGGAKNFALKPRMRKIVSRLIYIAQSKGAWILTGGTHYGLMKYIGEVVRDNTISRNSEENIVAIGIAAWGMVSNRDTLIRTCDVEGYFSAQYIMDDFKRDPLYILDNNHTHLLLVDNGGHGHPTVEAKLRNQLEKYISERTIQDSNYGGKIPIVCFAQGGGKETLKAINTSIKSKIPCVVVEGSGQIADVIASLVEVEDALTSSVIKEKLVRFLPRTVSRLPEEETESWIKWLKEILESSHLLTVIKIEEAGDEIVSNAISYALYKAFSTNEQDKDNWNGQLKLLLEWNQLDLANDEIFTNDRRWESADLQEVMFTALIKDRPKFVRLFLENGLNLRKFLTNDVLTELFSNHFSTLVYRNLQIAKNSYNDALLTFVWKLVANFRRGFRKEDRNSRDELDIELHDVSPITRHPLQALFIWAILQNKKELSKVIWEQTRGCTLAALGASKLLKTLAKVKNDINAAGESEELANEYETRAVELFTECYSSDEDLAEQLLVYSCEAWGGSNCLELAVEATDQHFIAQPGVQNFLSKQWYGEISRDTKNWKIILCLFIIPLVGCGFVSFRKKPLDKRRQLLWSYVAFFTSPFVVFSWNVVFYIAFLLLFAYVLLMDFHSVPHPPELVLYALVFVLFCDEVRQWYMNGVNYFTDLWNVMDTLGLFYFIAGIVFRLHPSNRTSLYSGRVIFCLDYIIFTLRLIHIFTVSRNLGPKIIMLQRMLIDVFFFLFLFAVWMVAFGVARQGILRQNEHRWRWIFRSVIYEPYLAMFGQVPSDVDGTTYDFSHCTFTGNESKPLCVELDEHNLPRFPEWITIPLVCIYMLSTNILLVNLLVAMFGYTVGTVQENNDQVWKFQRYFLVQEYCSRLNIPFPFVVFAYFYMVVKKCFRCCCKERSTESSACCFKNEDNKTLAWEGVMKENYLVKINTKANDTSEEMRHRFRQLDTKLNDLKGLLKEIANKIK

| Structure (SMILES) | EC50 (human TRPM8 [1]) [nM] | EC50 (pig TRPM8 [2]) [nM] | EC50 (human TRPM8 [3]) [nM] | EC50 (pig TRPM8 [4]) [nM] | change in vivo at 10 mg [5, 6] [%] | change in vivo at 10 mg [5, 7] [%] |
| --- | --- | --- | --- | --- | --- | --- |
| COC(=O)c1ccc(CCNC(=O)[C@]2(O)C[C@H](C)CC[C@H]2C(C)C)cc1 [Example 108, methyl 4-(2-((1S,2S,5R)-1-hydroxy-2-isopropyl-5-methylcyclohexane-1-carboxamido)ethyl)benzoate] | 211 | 73 | – | > 10000 | 114 | 169 |
| CC(C)[C@@H]1CC[C@@H](C)C[C@@]1(O)C(=O)NCCc1cccc(C(N)=O)c1 [Example 49, 3-(2-((1S,2S,5R)-1-hydroxy-2-isopropyl-5-methylcyclohexane-1-carboxamido)ethyl) benzamide] | 67 | 24.2 | 1940 | 1400 | 300 | 133 |
| CC(C)[C@@H]1CC[C@@H](C)C[C@@]1(O)C(=O)NCC1(c2ccccc2)COC1 [Example 31, (1S,2S,5R)-1-hydroxy-2-isopropyl-5-methyl-N-((3-phenyloxetan-3-yl)methyl)cyclohexane-1-carboxamide] | 10.4 | 9.3 | 2080 | 3150 | 119 | 253 |
| CC(C)[C@@H]1CC[C@@H](C)C[C@@]1(O)C(=O)NCCc1cccc(OCC(O)CO)c1 (stereo partly drawn) [Example 10, (1S,2S,5R)—N-(3-(2,3-dihydroxypropoxy)phenethyl)-1-hydroxy-2-isopropyl-5-methylcyclohexane-1-carboxamide] | 21.4 | 9.7 | 4130 | 4800 | – | – |
| CC(C)[C@@H]1CC[C@@H](C)C[C@@]1(O)C(=O)NCCc1cccc2c1OCC2 [Example 159, (1S,2S,5R)-N-[2-(2,3-dihydrobenzofuran-7-yl)ethyl]-1-hydroxy-2-isopropyl-5-methyl-cyclohexanecarboxamide] | 9.2 | 4.9 | 1000 | 1030 | – | – |
| CC(C)[C@@H]1CC[C@@H](C)C[C@@]1(O)C(=O)NCC(=O)Oc1ccccc1 [Example 67, phenyl ((1S,2S,5R)-1-hydroxy-2-isopropyl-5-methylcyclohexane-1-carbonyl)glycinate] | 9 | 5 | 2700 | 3360 | – | – |
| CC(C)[C@@H]1CC[C@@H](C)C[C@@]1(O)C(=O)NCC(O)c1ccccc1Cl (stereo partly drawn) [Example 160, (1S,2S,5R)-N-[2-(2-chlorophenyl)-2-hydroxy-ethyl]-1-hydroxy-2-isopropyl-5-methyl-cyclohexanecarboxamide] | 16.1 | 16.4 | 620 | 480 | – | – |
| CC(C)[C@@H]1CC[C@@H](C)C[C@@]1(O)C(=O)NCC(CCO)c1ccccc1 (stereo partly drawn) [Example 66, (1S,2S,5R)-1-hydroxy-N-(4-hydroxy-2-phenylbutyl)-2-isopropyl-5-methylcyclohexane-1-carboxamide] | 51 | 75 | 3700 | 6060 | – | – |
| CC(C)[C@@H]1CC[C@@H](C)C[C@@]1(O)C(=O)NCCOC(=O)c1ccccc1 [Example 111, 2-((1S,2S,5R)-1-hydroxy-2-isopropyl-5-methylcyclohexane-1-carboxamido)ethyl benzoate] | 72.7 | 25.1 | 5100 | 5070 | – | – |
| CC(C)[C@@H]1CC[C@@H](C)C[C@@]1(O)C(=O)N[C@H](CO)Cc1ccccc1 [Example 146, (1S,2S,5R)-N-[(1S)-1-benzyl-2-hydroxy-ethyl]-1-hydroxy-2-isopropyl-5-methyl-cyclohexanecarboxamide] | 16 | 16 | 1200 | 2390 | – | – |
| CC(C)[C@@H]1CC[C@@H](C)C[C@@]1(O)C(=O)NC[C@@H](OCC(=O)O)c1ccccc1 [Example 55, 2-((S)-2-((1S,2S,5R)-1-hydroxy-2-isopropyl-5-methylcyclohexane-1-carboxamido)-1-phenylethoxy)acetic acid] | 102 | 54.3 | 4470 | 3550 | – | – |

Further molecules by falling EC50 (human TRPM8 [1]), results first:

| EC50 (human TRPM8 [1]) [nM] | EC50 (pig TRPM8 [2]) [nM] | EC50 (human TRPM8 [3]) [nM] | EC50 (pig TRPM8 [4]) [nM] | Structure (SMILES) | change in vivo at 10 mg [5, 6] [%] | change in vivo at 10 mg [5, 7] [%] |
| --- | --- | --- | --- | --- | --- | --- |
| 8.8 | 6.3 | 2400 | 4100 | CC(C)[C@@H]1CC[C@@H](C)C[C@@]1(O)C(=O)NCCc1ccccc1OCC(O)CO (stereo partly drawn) [Example 9, (1S,2S,5R)—N-(2-(2,3-dihydroxypropoxy)phenethyl)-1-hydroxy-2-isopropyl-5-methylcyclohexane-1-carboxamide] | – | – |
| 7.8 | 13.4 | 2580 | 1700 | CC(C)[C@@H]1CC[C@@H](C)C[C@@]1(O)C(=O)NCCc1ccccc1OC[C@H](O)CO [Example 24, (1S,2S,5R)—N-(2-((R)-2,3-dihydroxypropoxy)phenethyl)-1-hydroxy-2-isopropyl-5-methylcyclohexane-1-carboxamide] | – | – |
| 6.9 | 2.6 | 3000 | 1250 | CC(C)[C@@H]1CC[C@@H](C)C[C@@]1(O)C(=O)NCC(=O)Nc1ccccc1 [Example 129, (1S,2S,5R)-N-(2-anilino-2-oxo-ethyl)-1-hydroxy-2-isopropyl-5-methyl-cyclohexanecarboxamide] | – | – |
| 3 | 2 | 1390 | 790 | [2H]C(O)(CNC(=O)[C@]1(O)C[C@H](C)CC[C@H]1C(C)C)c1ccccc1 (stereo partly drawn) [Example 72, (1S,2S,5R)-1-hydroxy-N-(2-hydroxy-2-phenylethyl-2-d)-2-isopropyl-5-methylcyclohexane-1-carboxamide] | – | – |
| 3 | 3 | 1230 | 507 | CC(C)[C@@H]1CC[C@@H](C)C[C@@]1(O)C(=O)NCC(O)c1cccc(O)c1 (stereo partly drawn) [Example 32, (1S,2S,5R)-1-hydroxy-N-(2-hydroxy-2-(3-hydroxyphenyl)ethyl)-2-isopropyl-5-methylcyclohexane-1-carboxamide] | – | – |
| 1.7 | 1.2 | 810 | 733 | CC(C)[C@@H]1CC[C@@H](C)C[C@@]1(O)C(=O)NC[C@@H](O)c1ccccc1 [Example 1, (1S,2S,5R)-1-hydroxy-N—((S)-2-hydroxy-2-phenylethyl)-2-isopropyl-5-methylcyclohexane-1-carboxamide] | 231 | 274 |
| 1 | 2 | 150 | 782 | CC(C)[C@@H]1CC[C@@H](C)C[C@@]1(O)C(=O)NCCc1ccccc1C(=O)OCCN [Example 13, 2-aminoethyl 2-(2-((1S,2S,5R)-1-hydroxy-2-isopropyl-5-methylcyclohexane-1-carboxamido)ethyl) benzoate hydrochloride] | 100 | 53 |
| 0.4 | 0.4 | 140 | 71 | CC(C)[C@@H]1CC[C@@H](C)C[C@@]1(O)C(=O)NC[C@@H](N)c1ccccc1 [Example 50, (1S,2S,5R)—N-((2S)-amino-2-phenylethyl)-1-hydroxy-2-isopropyl-5-methylcyclohexane-1-carboxamide] | 100 | 63 |

From US20240124408A1 (Sanofi, priority 2020, published 2024)
